pEC50: −log10 of the molar value.
The compounds below were run against T1, human M4 muscarinic acetylcholine receptor (Homo sapiens, UniProt P08173) (assay: human FLIPR-based M4 PAM assay (CHO-K1 cells with human M4 receptor and Gαqi5, calcium dye fluorescence)). Settings: inflection point of 4 parameter logistic fit; acetylcholine added at 20% of maximum response; read-out: M4PAM IP.
T1 construct: expressed in transfected cells
T1 sequence (P08173 1-479): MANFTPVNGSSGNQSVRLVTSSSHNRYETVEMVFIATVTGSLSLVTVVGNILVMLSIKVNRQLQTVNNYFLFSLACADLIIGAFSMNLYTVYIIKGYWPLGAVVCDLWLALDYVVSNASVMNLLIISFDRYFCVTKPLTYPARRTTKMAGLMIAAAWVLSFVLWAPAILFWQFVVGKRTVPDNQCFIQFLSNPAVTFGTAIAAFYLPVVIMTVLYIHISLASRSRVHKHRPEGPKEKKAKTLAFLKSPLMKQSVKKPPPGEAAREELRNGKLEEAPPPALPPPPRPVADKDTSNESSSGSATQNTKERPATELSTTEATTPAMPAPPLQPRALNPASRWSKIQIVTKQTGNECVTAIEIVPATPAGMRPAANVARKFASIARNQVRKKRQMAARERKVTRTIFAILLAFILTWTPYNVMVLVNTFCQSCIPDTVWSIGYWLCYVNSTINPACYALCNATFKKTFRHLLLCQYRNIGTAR
Assay type: cell-based
Description: In a typical experiment the M4 muscarinic acetylcholine receptor modulating activity of the compounds of the present invention was determined in accordance with the following experimental method. CHO-K1 cells stably transfected with human M4 receptor and chimeric G-protein Gαqi5 (Coward P, et al., Analytical Biochemistry, 270:242-248 (1999)) are thawed from liquid N2 storage, resuspended in growth medium, plated in black, clear bottom 384 well plates, and incubated 16-20 hours at 37° C., 5% CO2. On the day of assay, growth medium is removed, the cells are washed 2 times with wash buffer, and cells are incubated in dye loading buffer at 37° C., 5% CO2 for ˜1 hour. Following dye loading the cell plates are placed in a FLIPR Tetra instrument and while monitoring dye fluorescence (excitation […]), 10 uL of test substance at increasing concentrations is added, and fluorescence values are recorded for 4 min. Next, 10 uL of acetylcholine is added (final concentration calculated so as to achieve 20% of the maximum acetycholine response), and the fluorescence reading is continued for 3.5 min. In some cases, a third addition of acetylcholine (final concentration calculated to achieve 70% of the maximal acetylcholine response) is performed. The resulting dose response curves are fit to a 4 parameter logistic equation and the final result is determined as the inflection point (IP) of the curve
CHO-K1 cells stably transfected with human M4 receptor and chimeric G-protein Gαqi5 are thawed from liquid N2 storage, resuspended in growth medium, plated in black, clear bottom 384 well plates, and incubated 16-20 hours at 37° C., 5% CO2.
On the day of assay, growth medium is removed, the cells are washed 2 times with wash buffer, and cells are incubated in dye loading buffer at 37° C., 5% CO2 for ˜1 h. Following dye loading the cell plates are placed in a FLIPR Tetra instrument and while monitoring dye fluorescence ([…]), 10 uL of test substance at increasing concentrations is added, and fluorescence values are recorded for 4 min. Next, 10 uL of acetylcholine is added (final concentration calculated so as to achieve 20% of the maximum acetycholine response), and the fluorescence reading is continued for 3.5 min. In some cases, a third addition of acetylcholine (final concentration calculated to achieve 70% of the maximal acetylcholine response) is performed.
For `COCc1cn2ccc(-c3nc(C#N)ccc3-c3cnn(CC(C)(C)C)c3)cc2n1` [Example 104, 5-[1-(2,2-dimethylpropyl)-1H-pyrazol-4-yl]-6-[2-(methoxymethyl)imidazo[1,2-a]pyridin-7-yl]pyridine-2-carbonitrile], the pEC50 was 7.35. With `Cn1nc2ccc(-c3nc(C#N)ccc3-c3cnn(CC(C)(C)C)c3)cc2n1` [Example 69, 5-[1-(2,2-dimethylpropyl)-1H-pyrazol-4-yl]-6-(2-methyl-2H-benzotriazol-5-yl)pyridine-2-carbonitrile] the pEC50 was 6.62. Compound `Cc1ccc(-c2cnn(CC(C)(C)C(F)(F)F)c2)c(-c2ccn3ccnc3c2)n1` [Example 26] has a pEC50 of 7.59. `Cc1nc2cc(-c3nc(C#N)ccc3-c3cnn(CC(C)(C)C)c3)ccn2n1` [Example 63, 6-(2-methyl-[1,2,4]triazolo[1,5-a]pyridin-7-yl)-5-(1-neopentyl-1H-pyrazol-4-yl)picolinonitrile] showed a pEC50 of 7.33. Compound `CCC(F)(F)Cn1cc(-c2ccc(C#N)nc2-c2ccn3ccnc3c2)cn1` [Example 18, 5-[1-(2,2-difluorobutyl)-1H-pyrazol-4-yl]-6-imidazo[1,2-a]pyridin-7-ylpyridine-2-carbonitrile] has a pEC50 of 7.21. For `CC(C)CCn1cc(-c2cc(Cl)cnc2-c2ccc3scnc3c2)cn1` [Example 78, 5-{5-chloro-3-[1-(3-methylbutyl)-1H-pyrazol-4-yl]pyridin-2-yl}-1,3-benzothiazole], the pEC50 was 6.69. For `CC(C)(C)Cn1cc(-c2ccc(OC(F)(F)F)nc2-c2ccn3ccnc3c2)cn1` [Example 100, 7-{3-[1-(2,2-dimethylpropyl)-1H-pyrazol-4-yl]-6-(trifluoromethoxy)pyridin-2-yl}imidazo [1,2-a]pyridine], the pEC50 was 6.68. In the case of `CC(C)(C)Cn1cc(-c2ccc(C3CC3)nc2-c2ccn3ccnc3c2)cn1` [Example 99, 7-{6-cyclopropyl-3-[1-(2,2-dimethylpropyl)-1H-pyrazol-4-yl]pyridin-2-yl}imidazo[1,2-a]pyridine], the pEC50 was 6.82. `CCC1(Cn2cc(-c3ccc(C#N)nc3-c3ccn4ccnc4c3)cn2)CC1` [Example 37, 5-{1-[(1-ethylcyclopropyl)methyl]-1H-pyrazol-4-yl}-6-imidazo[1,2-a]pyridin-7-ylpyridine-2-carbonitrile] showed a pEC50 of 7.84. `Cc1cn2ccc(-c3nc(C#N)ccc3-c3cnn(CC4(CC(C)C)CC4)c3)cc2n1` [Example 35, 6-(2-methylimidazo[1,2-a]pyridin-7-yl)-5-(1-{[1-(2-methylpropyl)cyclo-propyl]methyl}-1H-pyrazol-4-yl)pyridine-2-carbonitrile] gave a pEC50 of 6.97. For `Cc1nc2cc(-c3nc(C#N)ccc3-c3cnn(CCC(F)(F)C(F)F)c3)ccc2n1C` [Example 30, 6-(1,2-dimethyl-1H-benzimidazol-5-yl)-5-[1-(3,3,4,4-tetrafluorobutyl)-1H-pyrazol-4-yl]pyridine-2-carbonitrile], the pEC50 was 6.99. `Cc1nc2cc(-c3ncc(F)cc3-c3cnn(CC(C)(C)C(C)(F)F)c3)ccc2n1C` [Example 103, 5-(3-(1-(3,3-difluoro-2,2-dimethylbutyl)-1H-pyrazol-4-yl)-5-fluoropyridin-2-yl)-1,2-dimethyl-1H-benzo[d]imidazole] gave a pEC50 of 6.93. In the case of `Cc1nc2cc(-c3nc(C#N)ccc3-c3cnn(CC(C)(C)C)c3)cnc2n1C` [Example 89, 6-(2,3-dimethyl-3H-imidazo[4,5-b]pyridin-6-yl)-5-[1-(2,2-dimethylpropyl)-1H-pyrazol-4-yl]pyridine-2-carbonitrile], the pEC50 was 6.93. In the case of `CC(C)(C)Cn1cc(-c2ccc(C#N)nc2-c2ccn3c(F)cnc3c2)cn1` [Example 82, 5-[1-(2,2-dimethylpropyl)-1H-pyrazol-4-yl]-6-(3-fluoroimidazo[1,2-a]pyridin-7-yl)pyridine-2-carbonitrile], the pEC50 was 7.29. In the case of `Cc1cn2ccc(-c3nc(C#N)ccc3-c3cnn(CC(C)(C)CO)c3)cc2n1` [Example 127, 5-(1-(3-hydroxy-2,2-dimethylpropyl)-1H-pyrazol-4-yl)-6-(2-methylimidazo[1,2-a]pyridin-7-yl)picolinonitrile], the pEC50 was 6.86.
